# Assay results as given in ChEMBL document CHEMBL4665751, “Discovery of Clinical Candidate (5-(3-(4-Chlorophenoxy)prop-1-yn-1-yl)-3-hydroxypicolinoyl)glycine, an Orally Bioavailable Prolyl Hydroxylase Inhibitor for the Treatment of Anemia” (J Med Chem, 2020).
# How the values were obtained:
# [1] = Genotoxicity in Salmonella typhimurium TA100 at 62.5 to 1000 ug incubated for 48 to 50 hrs in presence of S9 fraction by Ames test; format: toxicity, subcellular, Salmonella enterica subsp. enterica serovar Typhimurium; conditions: dose 62.5-1000 µg, time 48-50 hrs
# [2] = system: Mus musculus; test: Antianemic activity in cisplatin-induced C57BL/6 mouse anemia model assessed as improvement in anemia at 10 mg/kg, po administered every other day for 1 month; format: functional; conditions: time 1 months, 730 h
# [3] = AUC (0 to t) in Beagle dog at 0.5 mg/kg, iv by LC-MS/MS analysis; format: ADME, organism-based, Canis lupus familiaris; design: dose 0.5 mg/kg; conditions: in vivo
# [4] = Acute toxicity in male Sprague-Dawley rat assessed as change in ratio of epididymis to body weight at 15 to 200 mg/kg, po administered every alternate days for 2 weeks measured on day 14; format: organism-based; conditions: in vivo, 336 h, dose 15-200 mg/kg, time 14 day
# [5] = Acute toxicity in female Sprague-Dawley rat assessed as change in ratio of uterus with cervix to body weight at 15 to 200 mg/kg, po administered every alternate days for 2 weeks measured on day 14; format: organism-based; conditions: in vivo, 336 h, dose 15-200 mg/kg, time 14 day
# [6] = Acute toxicity in female Sprague-Dawley rat assessed as change in ratio of ovary to body weight at 15 to 200 mg/kg, po administered every alternate days for 2 weeks measured on day 14; format: organism-based; conditions: in vivo, 336 h, dose 15-200 mg/kg, time 14 day
# [7] = Acute toxicity in Sprague-Dawley rat assessed as change in ratio of liver to body weight at 15 to 200 mg/kg, po administered every alternate days for 2 weeks measured on day 14; format: organism-based; conditions: in vivo, 336 h, dose 15-200 mg/kg, time 14 day
# [8] = Acute toxicity in Sprague-Dawley rat assessed as change in body weight at 15 to 200 mg/kg, po administered every alternate days for 14 days; format: organism-based; conditions: in vivo, 336 h, dose 15-200 mg/kg, time 14 day
# [9] = Acute toxicity in Sprague-Dawley rat assessed as effect on food intake at 15 to 200 mg/kg, po administered every alternate day for 14 day; format: organism-based; conditions: in vivo, 336 h, dose 15-200 mg/kg
# [10] = biological target: Cytochrome P450 3A4 (Homo sapiens, UniProt P08684); test: Inhibition of CYP3A4 (unknown origin) using testosterone as substrate preincubated for 5 mins followed by addition of NADPH measured after 20 mins by LC-MS/MS analysis; format: ADME
# [11] = biological target: Cytochrome P450 2D6 (Homo sapiens, UniProt P10635); test: Inhibition of CYP2D6 (unknown origin) using dextromethorphan as substrate preincubated for 5 mins followed by addition of NADPH measured after 20 mins by LC-MS/MS analysis; format: ADME
# [12] = Half-life in dog liver microsome at 1 uM preincubated for 5 mins followed by NADPH addition measured up to 120 mins by LC-MS/MS analysis; format: ADME, Canis lupus familiaris; conditions: liver microsomes, time <=125 min
# [13] = Half-life in rat liver microsome at 1 uM preincubated for 5 mins followed by NADPH addition measured up to 120 mins by LC-MS/MS analysis; format: ADME; conditions: liver microsomes, time <=125 min
# [14] = Intrinsic clearance in monkey liver microsome at 1 uM preincubated for 5 mins followed by NADPH addition measured up to 120 mins by LC-MS/MS analysis; format: ADME, Macaca mulatta; conditions: rhesus monkey, microsomes, 2 h, time <=125 min
# [15] = AUC (0 to infinity) in Beagle dog at 0.5 mg/kg, iv by LC-MS/MS analysis; format: ADME, organism-based, Canis lupus familiaris; design: time infinity, route intravenous, dose 0.5 mg/kg; conditions: in vivo
# [16] = Oral bioavailability in Beagle dog at 2 mg/kg by LC-MS/MS analysis; format: ADME, organism-based, Canis lupus familiaris; conditions: in vivo
# [17] = Half-life in Beagle dog at 2 mg/kg, ig by LC-MS/MS analysis; format: ADME, organism-based, Canis lupus familiaris; conditions: in vivo, po
# [18] = AUC (0 to infinity) in Beagle dog at 2 mg/kg, ig by LC-MS/MS analysis; format: ADME, organism-based, Canis lupus familiaris; design: route […], time infinity, dose 2 mg/kg; conditions: in vivo, po
# [19] = Cmax in Beagle dog at 2 mg/kg, ig by LC-MS/MS analysis; format: ADME, organism-based, Canis lupus familiaris; design: route […], dose 2 mg/kg; conditions: in vivo, po
# [20] = Half-life in Sprague-Dawley rat at 1 mg/kg, iv by LC-MS/MS analysis; format: ADME, organism-based; conditions: in vivo
# [21] = Clearance in Sprague-Dawley rat at 1 mg/kg, iv by LC-MS/MS analysis; format: ADME, organism-based; conditions: in vivo
# [22] = Apparent volume of distribution in Sprague-Dawley rat at 2 mg/kg, ig by LC-MS/MS analysis; format: ADME, organism-based; conditions: in vivo, po
# [23] = AUC (0 to infinity) in Sprague-Dawley rat at 2 mg/kg, ig by LC-MS/MS analysis; format: ADME, organism-based; design: time infinity, route […], dose 2 mg/kg; conditions: in vivo, po
# [24] = system: Mus musculus; test: In vivo inhibition of PHD2 in po dosed C57BL/6 mouse assessed as upregulation of EPO plasma level administered 4 times for 3 days by ELISA; format: functional, organism-based; conditions: dose mg/kg 5-50, time 3.0 day
# [25] = biological target: T1, Egl nine homolog 1 (Homo sapiens, UniProt Q9GZT9); test: Inhibition of PHD2 in human MCF7 cells assessed as upregulation of HIFalpha expression at 25 uM incubated for 24 hrs by firefly/renilla luciferase reporter gene assay relative to control; format: cell-based
# Target sequence in this assay (Q9GZT9 2-426 limits assumed): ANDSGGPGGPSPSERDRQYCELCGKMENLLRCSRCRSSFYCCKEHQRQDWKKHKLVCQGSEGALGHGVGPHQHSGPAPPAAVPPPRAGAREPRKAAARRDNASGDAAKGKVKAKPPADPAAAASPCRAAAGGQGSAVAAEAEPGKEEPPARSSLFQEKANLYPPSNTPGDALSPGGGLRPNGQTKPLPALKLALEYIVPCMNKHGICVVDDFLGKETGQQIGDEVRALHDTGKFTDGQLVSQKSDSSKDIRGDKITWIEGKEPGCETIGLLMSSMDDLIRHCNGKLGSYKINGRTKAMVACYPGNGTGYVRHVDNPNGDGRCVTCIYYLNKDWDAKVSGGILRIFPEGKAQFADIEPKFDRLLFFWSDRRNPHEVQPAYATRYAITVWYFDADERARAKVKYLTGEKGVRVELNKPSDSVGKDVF
# [26] = species: Homo sapiens; test: Selectivity index, ratio of IC50 for KDM6B (unknown origin) in presence of peptide substrate incubated for 30 mins by alpha screen assay to IC50 for PHD2 (unknown origin) by O-phenyl enediamine(OPD) based fluorescence assay
# [27] = species: Homo sapiens; test: Selectivity index, ratio of IC50 for PHD3 (unknown origin) to IC50 for PHD2 (unknown origin) by O-phenyl enediamine(OPD) based fluorescence assay
# [28] = biological target: T1, Egl nine homolog 1; test: Inhibition of FITC-HIF1alpha (556 to 574 residues) binding to PHD2 (181 to 426 residues) (unknown origin) by fluorescence polarization assay
# Target sequence in this assay (Q9GZT9 whole entry): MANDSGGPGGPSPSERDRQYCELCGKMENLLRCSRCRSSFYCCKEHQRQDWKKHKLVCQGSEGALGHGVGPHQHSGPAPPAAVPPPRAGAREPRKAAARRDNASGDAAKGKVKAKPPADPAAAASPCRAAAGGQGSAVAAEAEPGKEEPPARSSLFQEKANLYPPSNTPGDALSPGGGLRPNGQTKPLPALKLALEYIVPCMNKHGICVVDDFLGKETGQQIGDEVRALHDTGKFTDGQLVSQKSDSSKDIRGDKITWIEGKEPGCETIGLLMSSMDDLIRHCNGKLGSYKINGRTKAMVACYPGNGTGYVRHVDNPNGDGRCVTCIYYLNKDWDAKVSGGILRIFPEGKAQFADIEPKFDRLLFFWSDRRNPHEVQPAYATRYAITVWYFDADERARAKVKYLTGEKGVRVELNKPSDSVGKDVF
# Cytochrome P450 2D6, sequence (P10635 whole entry): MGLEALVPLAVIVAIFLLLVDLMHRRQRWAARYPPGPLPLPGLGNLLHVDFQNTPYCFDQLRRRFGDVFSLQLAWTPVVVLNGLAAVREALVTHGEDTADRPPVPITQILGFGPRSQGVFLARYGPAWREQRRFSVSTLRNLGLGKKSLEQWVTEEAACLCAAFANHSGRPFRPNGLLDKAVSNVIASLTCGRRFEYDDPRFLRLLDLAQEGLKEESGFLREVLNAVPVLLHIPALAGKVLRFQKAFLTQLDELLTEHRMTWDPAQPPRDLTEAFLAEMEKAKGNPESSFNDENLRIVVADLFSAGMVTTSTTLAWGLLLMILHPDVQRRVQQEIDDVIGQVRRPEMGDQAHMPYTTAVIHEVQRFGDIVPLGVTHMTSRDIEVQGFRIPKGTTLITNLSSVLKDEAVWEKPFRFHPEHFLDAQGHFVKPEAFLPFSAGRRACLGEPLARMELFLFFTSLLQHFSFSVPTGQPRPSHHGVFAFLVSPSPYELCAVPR
# Cytochrome P450 3A4, sequence (P08684 whole entry): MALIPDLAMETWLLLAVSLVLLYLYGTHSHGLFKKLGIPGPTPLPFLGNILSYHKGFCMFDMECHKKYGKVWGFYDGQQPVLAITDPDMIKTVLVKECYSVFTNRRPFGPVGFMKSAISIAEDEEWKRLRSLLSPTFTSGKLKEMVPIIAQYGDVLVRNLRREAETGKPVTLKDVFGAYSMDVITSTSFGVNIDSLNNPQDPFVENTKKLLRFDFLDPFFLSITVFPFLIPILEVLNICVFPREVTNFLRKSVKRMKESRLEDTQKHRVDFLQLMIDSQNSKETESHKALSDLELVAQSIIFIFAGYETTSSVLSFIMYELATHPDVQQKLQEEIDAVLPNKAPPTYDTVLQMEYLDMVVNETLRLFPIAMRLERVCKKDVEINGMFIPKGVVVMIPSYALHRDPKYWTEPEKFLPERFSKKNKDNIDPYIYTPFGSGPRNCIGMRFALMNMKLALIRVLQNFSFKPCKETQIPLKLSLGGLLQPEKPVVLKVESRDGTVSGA
smiles,measurement,setting,value
O=C(O)CNC(=O)c1ncc(C#CCOc2ccc(Cl)cc2)cc1O [DDO-3055],Activity,[1],Non-Toxic
same,Activity,[2],83.3%
same,AUC(0-t),[3],611 ng·h/mL
same,Activity,[4],Non-Toxic
same,Activity,[5],Non-Toxic
same,Activity,[6],Non-Toxic
same,Activity,[7],Non-Toxic
same,Activity,[8],Non-Toxic
same,Activity,[9],Non-Toxic
same,IC50,[10],> 30 µM
same,IC50,[11],> 30 µM
same,half-life at 1 µM,[12],> 139 min
same,half-life at 1 µM,[13],> 67 min
same,CLH,[14],< 13 µL/min/kg
same,AUC(0-inf),[15],636 ng·h/mL
same,bioavailability,[16],54%
same,half-life,[17],251 min
same,AUC(0-inf),[18],1370 ng·h/mL
same,Cmax,[19],735 ng/mL
same,half-life,[20],506 min
same,clearance,[21],3.44 mL/min/kg
same,Vz,[22],3409 mL/kg
same,AUC(0-inf),[23],5420 ng·h/mL
same,inhibition,[24],Dose-dependent effect
same,fold change (FC),[25],4
same,Ratio IC50,[26],> 156
same,Ratio IC50,[27],2.6
same,IC50,[28],64.2 nM
